Data taken from article PMC5394417, “Investigating the molecular mechanism of positive and negative allosteric modulators in the calcium-sensing receptor dimer” (Scientific Reports, 2017).

Target: T1, HA-F821A CaSR mutant (Rattus norvegicus, UniProt P48442, F821A)
T1 construct: mGluR5 signal peptide (N); expressed in transfected cells; host or cells: HEK293T
T1 sequence (P48442 20-1079 F821A): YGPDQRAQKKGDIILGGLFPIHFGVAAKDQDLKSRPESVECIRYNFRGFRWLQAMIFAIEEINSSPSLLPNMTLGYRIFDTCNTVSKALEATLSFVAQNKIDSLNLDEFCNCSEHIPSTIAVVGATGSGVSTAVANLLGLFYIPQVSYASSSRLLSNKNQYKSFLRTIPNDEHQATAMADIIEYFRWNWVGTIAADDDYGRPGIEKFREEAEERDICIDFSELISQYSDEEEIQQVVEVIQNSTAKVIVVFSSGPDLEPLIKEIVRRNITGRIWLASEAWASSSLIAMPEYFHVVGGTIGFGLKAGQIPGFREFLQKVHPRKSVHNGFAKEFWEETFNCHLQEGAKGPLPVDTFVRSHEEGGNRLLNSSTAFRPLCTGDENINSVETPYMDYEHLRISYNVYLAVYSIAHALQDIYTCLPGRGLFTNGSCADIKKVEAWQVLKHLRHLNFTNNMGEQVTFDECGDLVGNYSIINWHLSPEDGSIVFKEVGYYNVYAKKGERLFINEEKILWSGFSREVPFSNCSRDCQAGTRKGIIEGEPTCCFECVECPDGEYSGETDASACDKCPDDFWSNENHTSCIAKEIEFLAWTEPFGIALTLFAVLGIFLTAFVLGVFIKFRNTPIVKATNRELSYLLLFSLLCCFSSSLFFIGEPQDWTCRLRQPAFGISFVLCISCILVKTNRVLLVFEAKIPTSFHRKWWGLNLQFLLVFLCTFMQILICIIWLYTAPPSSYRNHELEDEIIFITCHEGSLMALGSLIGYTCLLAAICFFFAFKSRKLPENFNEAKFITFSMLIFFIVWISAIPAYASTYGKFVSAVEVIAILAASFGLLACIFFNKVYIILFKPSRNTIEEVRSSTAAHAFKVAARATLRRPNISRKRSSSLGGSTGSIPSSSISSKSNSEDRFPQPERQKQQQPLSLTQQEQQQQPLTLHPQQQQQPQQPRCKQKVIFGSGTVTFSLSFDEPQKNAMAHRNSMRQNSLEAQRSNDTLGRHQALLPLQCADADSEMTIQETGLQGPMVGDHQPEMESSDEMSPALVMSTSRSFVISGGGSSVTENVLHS
Test: IP-One assay, HEK293T transiently transfected
Type: cell-based

[Ca+2] [Ca^2+]
EC50 (Ca^2+ alone): 2350 µM | pEC50 ± S.E.M. (Ca^2+ alone): 2.63 ± 0.02 | Max ± S.E.M. (Ca^2+ alone, normalized to maximum response of WT CaSR): 87 ± 4.3% | EC50 (Ca^2+ with 1 μM NPS R-568): 1920 µM | pEC50 ± S.E.M. (Ca^2+ with 1 μM NPS R-568): 2.72 ± 0.01 | Max ± S.E.M. (Ca^2+ with 1 μM NPS R-568, normalized to maximum response with Ca^2+ alone for the construct): 110 ± 14% | EC50 (Ca^2+ with 5 μM NPS 2143): 5720 µM | pEC50 ± S.E.M. (Ca^2+ with 5 μM NPS 2143): 2.25 ± 0.05 | Max ± S.E.M. (Ca^2+ with 5 μM NPS 2143, normalized to maximum response with Ca^2+ alone for the construct): 51 ± 8.0%
